Assay results as given in a melting point compilation (Tetko et al.; mined from patent text by program, amines drawn as free bases though some values may be those of a salt).

Structure (SMILES) | melting point
CC(C)(C)C(NC(=O)Cc1ccc(C#N)cc1)NC(=NC#N)Nc1cccc2ncccc12 (centres undefined) | 194 to 196 °C
CCOP(=O)(CC=CC(=O)O)OCC | 73 to 75 °C
O=c1[nH]c2scc(-c3ccccc3)c2[nH]c1=O | > 300 °C
O=C(Nc1ccccc1O)c1nnn[nH]1 | 220 to 223 °C
ON=C(CCN1CCN(c2ccccn2)CC1)c1ccc(F)cc1 | 159 to 160 °C
CC(=O)C(=CNc1cc(Cl)c(Cl)c(C(=O)O)c1Cl)C(C)=O | 242 to 244 °C
COC(=O)c1cc(N2C(=O)C3C4CC4CN3C2=O)c(F)cc1Cl (centres undefined) | 59 to 62 °C
OC(Cc1ccccn1)c1ccccc1 (centres undefined) | 105 to 107 °C
CC(C)(C)OC(=O)c1nn(-c2ccc(Cl)cc2Cl)c(-c2ccc(Cl)cc2)c1CC#N | 168 °C
CC(=O)OC1CSC(Oc2ccc(C)nc2-c2cccnc2)C(OC(C)=O)C1OC(C)=O (centres undefined) | 92 to 102 °C
O=C(CN1CCC(Oc2ccccc2)CC1)Nc1ccc2c(c1)OCC(=O)N2 | 206 to 208 °C
CCCCc1nn(-c2cc(NC(=O)CC)ccc2Cl)c(=O)n1Cc1ccc(-c2ccccc2S(N)(=O)=O)cc1F | 135 to 137 °C
N#Cc1ccc(C2CCCC(=O)N2c2ccccc2)cc1 (centres undefined) | 120 °C
Nc1c(Cl)ccc(Br)c1F | 61 to 62 °C
ON=C1CCCCC1=Cc1ccccc1 | 114 to 115 °C
COc1ccccc1-c1cccn2nc(Nc3ccc4c(c3)CCN(CC(=O)N(C)C)CC4)nc12 | 102 to 105 °C
C[C@@H](n1cnc2cc(N(C)C)c(F)cc2c1=O)[C@](O)(Cn1cncn1)c1ccc(F)cc1F | 197 to 198 °C
CCC(C)(C)Nc1c(NCc2ccc(Cl)cc2Cl)c(=O)c1=O | 196 to 197 °C
CCCCCc1nc(O)c(-c2ccccc2)s1 | 128 to 130 °C
Cc1ccc(C#CC2CCC3C4CCC5CC(O)CCC5(C)C4CCC23C)cc1 (centres undefined) | 178 to 180 °C
CCCC(=O)Oc1ccc2nc(NC(=O)Nc3ccccc3)sc2c1 | 207 to 211 °C
CCCc1c(OCCCC#CCO)ccc(C(C)=O)c1O | 88 to 90 °C
O=[N+]([O-])c1ccc(NN=CCCc2ccc(F)cc2)cc1 | 125 to 127 °C

Structure (SMILES) | melting point
Cc1cc(CCCCCOc2ccc(-c3nccs3)cc2)on1 | 78 to 80 °C
CCCCn1cc(C(=O)Nc2nccs2)c2ccc(Cl)cc21 | 168 to 169 °C
FC(F)c1nc2ccccc2n1-c1nc(Nc2cnccn2)nc(N2CCOCC2)n1 | 271 to 274 °C
COc1ccc(C(F)(F)C(F)(F)F)cc1-c1csc(N)n1 | 125 °C
COc1ccc(CNCC(O)COc2cccc3[nH]c4ccccc4c23)c(OC)c1 (centres undefined) | 152 to 154 °C
COc1cc(CCCCCCC=O)ccc1OCc1nc(-c2ccccc2)oc1C | 64 to 65 °C
Cc1ccnc2c(Oc3ccccc3NS(=O)(=O)c3ccc(Cl)cc3)cccc12 | 123 to 125 °C
Cc1c(NC(=O)c2ccc(-c3ccc(F)cc3)cc2)ccc2cc(CN3CCC(CCCC(N)=O)CC3)cnc12 | 232 to 234 °C
O=C(NCC1CNc2ccccc2C1)OCc1ccccc1 (centres undefined) | 115 to 116 °C
CCCCn1c(=O)[nH]c(=S)c2[nH]c(CC)nc21 | 206 to 207 °C
CCOC(=O)N1CCN(CCCCCCNc2cc(OC)cc3c(C)ccnc23)CC1 | 59 to 60 °C
N#CC(O)c1c(Cl)cccc1Cl (centres undefined) | 90 °C
OCC1CCC(N2CCC(=C3c4ccccc4Sc4ccc(C(F)(F)F)cc43)CC2)CC1 (centres undefined) | 193 to 197 °C
Cc1cc(OCc2sc(-c3ccc(C(F)(F)F)cc3)nc2C)ccc1OCC(=O)O | 174 to 176 °C
CCCCc1nc2cc(Cl)cc(C(=O)O)c2n1Cc1ccc(-c2ccccc2-c2nnn[nH]2)cc1 | 232 to 234 °C
CNC(=O)c1cccc(NC(=O)Cc2ccc3c(c2)OCO3)c1 | 174 to 175 °C
CCCCN(C(=O)N[C@@H](CC(=O)O)c1ccc2c(c1)OCO2)C1CC(=O)N(Cc2ccccc2)C1=O (some centres undefined) | 80 to 85 °C
O=C(Nc1ccc(F)cc1)N(O)Cc1ccc(OCc2csc(-c3ccc(C(F)(F)F)cc3)n2)cc1 | 174 to 176 °C
O=CNCC1CN(c2c(F)cc3c(=O)c(C(=O)O)cn(-c4ccc(F)cc4F)c3c2F)CCO1 (centres undefined) | 230 to 233 °C
CCOC(=O)N1C(c2ccccc2)OC(=O)C1c1ccccc1 (centres undefined) | 197 to 199 °C
CC(C)c1ccc(S(=O)(=O)n2c(C(O)c3cccc(C(=O)O)c3)cc3cc(Cl)ccc32)cc1 (centres undefined) | 97 °C
CC1(C)C(=O)N(c2ccc(C#N)c(C(F)(F)F)c2)C(=S)N1CCCCO | 78 to 79 °C
CCN(C)C(=O)Nc1c(C(=O)c2ccccc2)[nH]c2cc(Cl)ccc12 | 159 to 161 °C

Structure (SMILES) | melting point
Oc1ccc2cc(F)ccc2c1 | 118 to 120 °C
CC(C)(C)C(NC(=O)c1cc(Cl)cc(Cl)c1)Nc1c(Nc2cccnc2)c(=O)c1=O (centres undefined) | 260 to 262 °C
COC=C(c1cccnc1)C(C)c1ccc(Cl)cc1Cl (centres undefined) | 67 to 68 °C
C=CC1(N)CN=C(c2ccc(Cl)c(N(C)C)c2F)N=C1C(=O)OC (centres undefined) | 136 to 137 °C
CCn1c(Nc2ccc(C(F)(F)F)cc2C(F)(F)F)nc(C(F)(F)F)c(Cl)c1=O | 124 °C
Cc1nc(Nc2ccc(Cl)cc2)sc1-c1nc2ccccc2c(=O)n1-c1ccccc1Cl | 237 to 238 °C
O=C(O)COc1cc(Cl)sc1C(=O)O | 214 °C
CN1C(=O)CCc2c1ccc(Sc1cccc(C3(C)CC(O)CCO3)c1)c2F (centres undefined) | 141 to 142 °C
CCOc1cc(C2=NN(c3ccccc3)C(=O)[C@H]3CC=CC[C@@H]23)ccc1OC (relative stereo) | 97 to 99 °C
NS(=O)(=O)c1cc2c(cc1Cl)C(=O)N(CCN1CCOCC1)C2=O | 218 to 219 °C
Cc1ccc(C(=O)c2c(Cl)cccc2Cl)cc1 | 109 to 112 °C
O=C1Nc2nnccc2C(=O)C1c1c(F)cc(F)cc1F (centres undefined) | > 330 °C
CC(=O)NCC1CN(c2ccc(N3CCN(C(=O)COC(=O)c4cccnc4)CC3)c(F)c2)C(=O)O1 (centres undefined) | 173 to 175 °C
CC1(C)CCC(C)(C)c2cc(C#Cc3ccc(C#N)cc3)ccc21 | 157 °C
COc1cn(-c2ccc(OS(=O)(=O)C(F)(F)F)cc2F)nc(-c2ccnn2-c2ccccc2)c1=O | 108 to 110 °C
O=C(NCCCCCCOC(=O)N1CCC2(CCCC2)CC1)OC1CCN(C(=O)Oc2cccc(Oc3ccccc3)c2)CC1 | 72 to 120 °C
CCOC(C)OCc1ccccc1C(=NO)C(=O)NC (centres undefined) | 85 to 87 °C
O=C(O)CS(=O)(=O)c1cccc(-c2nc(=O)c3ccccc3s2)n1 | 192 to 194 °C
CC(C)N(CCC(c1ccccc1)c1cc(CO)ccc1OC(=O)c1ccc([N+](=O)[O-])cc1)C(C)C (centres undefined) | 124 °C
CCOC(=O)c1ccc(N=C(C)c2ccccc2)cc1 | 87 °C
Cc1nc(-c2cn(CCc3ccc(F)cc3)nn2)sc1C(=O)NCc1cccnc1 | 149 to 150 °C
CCc1ccc(CC)n1Nc1ccc(N2CCOCC2)nn1 | 186 to 189 °C
Cc1cc(N2C(=O)N(CCCCCCCCCSCCCC(F)(F)C(F)(F)F)C(C)(C)C2=O)ccc1NS(N)(=O)=O | 102 to 104 °C
